Data as given in EPA's ToxValDB 9.5 (doi:10.2903/j.efsa.2010.1716).
Values after ≈ are worked out from the molar mass of the structure shown.

What was measured:
Aphidius rhopalosiphi = assay: LR50; higher = less toxic; details: not reported; mortality
Bibionidae = details: chronic/long-term; duration: 28 days; seedling emergence
Danio rerio = details: acute; duration: 96 hours; mortality
Daphnia magna = details: chronic/long-term; duration: 21 days; reproduction
Tagia sp. = details: acute; duration: 14 days; mortality
Apis mellifera = details: acute; duration: 48 hours; oral; unspecified; mortality
Oryctolagus sp. = details: reproduction developmental; body weight

In the case of `c1ccc(CNc2ncnc3nc[nH]c23)cc1` [N-Benzyladenine], the LR50 (Aphidius rhopalosiphi) is reported as 36.2 g/ha, the NOEC (Bibionidae) is reported as 4.52 mg/L and the LC50 (Danio rerio) is reported as 32 µg/mL (≈ 142 µM). The LD50 (Rattus norvegicus; acute, oral, mortality) was 1580 mg/kg-day, the NOEL (Rattus norvegicus; reproduction developmental, body weight) was 30 mg/kg-day and the NOEC (Daphnia magna) was 4 mg/L. For the same compound, the LC50 (Tagia sp.) was greater than 1000 mg/kg, the LC50 (Colinus virginianus; acute, oral, diet, mortality) was greater than 2880 mg/kg-day and the LD50 (Colinus virginianus; acute, oral, mortality) was 1600 mg/kg-day. The NOEC (Colinus virginianus; reproduction developmental) was 41.3 mg/kg-day, the LD50 (Apis mellifera) was greater than 58.7 µg/piece and the NOAEL (Oryctolagus sp.) was less than 10 mg/kg-day.
